One experiment has as its target T1, PASK (Invitrogen) (Homo sapiens, UniProt Q96RG2).
T1 construct: IC50 Kinase Domain; purchased Invitrogen
Description: PAS Kinase FRET Assay. To be noted: PAS kinase TR-FRET assay (665 nm/615 nm), 2 hours at 25° C.; read-out: IC50 Kinase Domain. It counts as biochemical. (In TR-FRET formats the signal depends on donor and acceptor labels being close together.)

A further experiment deals with T2, PASK (UniProt #Q96RG2; human recombinant N-terminal GST tagged construct, residues 879-1323) (Homo sapiens, UniProt Q96RG2).
T2 construct: human recombinant N-terminal GST tagged construct, residues 879-1323; GST (N); host or cells: insect cells
Description: PASK ATP Radiochemical Assay. The experiment is classed as biochemical. To be noted: 33P-ATP, Myelin Basic Protein substrate, 120 min at room temperature, read-out: IC50 Kinase Domain. As to the method: Biochemical Assay for hPASK Activity
PASK ATP Radiochemical Assay
Test compounds in DMSO are then added and the mixture, followed by delivery of ^33P-ATP (specific activity 0.01 μCi/μl final) to initiate the reaction. […] The entire reaction mixture is washed through onto a P81 Phosphocellulose paper and washed three times for 10 minutes in 75 mM phosphoric acid and once in methanol prior to drying and scintillation counting.

SMILES strings stand for the structures.

T2 sequence (Q96RG2 879-1323, stated change not applied): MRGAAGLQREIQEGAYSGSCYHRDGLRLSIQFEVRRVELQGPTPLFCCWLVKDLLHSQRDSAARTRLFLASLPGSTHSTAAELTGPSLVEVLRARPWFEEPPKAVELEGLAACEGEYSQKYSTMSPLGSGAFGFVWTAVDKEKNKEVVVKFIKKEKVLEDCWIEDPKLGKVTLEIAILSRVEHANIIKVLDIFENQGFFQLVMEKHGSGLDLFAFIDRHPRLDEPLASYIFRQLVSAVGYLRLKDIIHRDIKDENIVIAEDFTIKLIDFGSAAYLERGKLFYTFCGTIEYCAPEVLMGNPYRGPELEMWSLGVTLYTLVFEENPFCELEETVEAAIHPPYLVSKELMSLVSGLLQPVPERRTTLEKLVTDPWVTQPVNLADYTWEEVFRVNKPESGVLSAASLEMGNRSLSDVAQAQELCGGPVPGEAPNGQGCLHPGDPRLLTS
T1 sequence (Q96RG2 999-1251 limits assumed): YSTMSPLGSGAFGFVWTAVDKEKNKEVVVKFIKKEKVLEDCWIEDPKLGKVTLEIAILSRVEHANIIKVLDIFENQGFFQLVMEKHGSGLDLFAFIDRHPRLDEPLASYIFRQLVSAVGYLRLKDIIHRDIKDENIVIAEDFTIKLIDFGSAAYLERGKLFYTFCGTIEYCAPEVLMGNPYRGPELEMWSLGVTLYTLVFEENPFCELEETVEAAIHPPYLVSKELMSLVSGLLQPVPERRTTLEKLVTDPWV

Regarding `CC(C)N(C)c1nc2cc(C(=O)O)ccc2nc1-c1cc2ccccc2s1` [Example 23, 2-(Benzo[b]thiophen-2-yl)-3-(isopropyl(methyl)amino)quinoxaline-6-carboxylic acid], the IC50 at PASK (Invitrogen) and on PASK was below 10 µM throughout.
Take `Cc1n[nH]c2ccc(-c3nc4ccc(C(=O)O)cc4nc3N(C)C(C)C)cc12` [Example 44, 2-(3-Methyl-M-indazol-5-yl)-3-(isopropyl(methyl)amino)quinoxaline-6-carboxylic acid]: the half-maximal inhibitory concentration (IC50) on PASK (Invitrogen) and on PASK was below 10 µM throughout.
For `CC(C)N(C)c1nc2cc(C(=O)O)ccc2nc1-c1cc2ccc(F)cc2o1` [Example 45, 2-(6-Fluoro-1-benzofuran-2-yl)-3-[methyl(propan-2-yl)amino]quinoxaline-6-carboxylic acid], the 50% inhibitory concentration (IC50) on PASK (Invitrogen) and on PASK was below 10 µM each time.
With `O=C(O)c1ccc2nc(-c3cc4ccc(F)cc4o3)c(N3CCCCCC3)nc2c1` [Example 48, 3-(Azepan-1-yl)-2-(6-fluoro-1-benzofuran-2-yl)quinoxaline-6-carboxylic acid], the 50% inhibitory concentration (IC50) on PASK (Invitrogen) and on PASK was below 10 µM in each case.
Turning to `O=C(O)c1ccc2nc(-c3ccc4c(c3)OC(F)(F)O4)c(N3CCCCCC3)nc2c1` [Example 51, 3-(Azepan-1-yl)-2-(2,2-difluoro-2H-1,3-benzodioxol-5-yl)quinoxaline-6-carboxylic acid], the IC50 at PASK (Invitrogen) and on PASK was below 10 µM throughout.
`CC(C)N(C)c1nc2cc(C(=O)O)ccc2nc1-c1cc(-c2ccccc2)co1` [Example 52, 3-[Methyl(propan-2-yl)amino]-2-(4-phenylfuran-2-yl)quinoxaline-6-carboxylic acid]: the IC50 at PASK (Invitrogen) and at PASK was below 10 µM in each case.
Regarding `C[C@H]1CCCN1c1nc2cc(C(=O)O)ccc2nc1-c1cc2cc(F)ccc2s1` [Example 55, (S)-2-(5-Fluorobenzo[b]thiophen-2-yl)-3-(2-methylpyrrolidin-1-yl)quinoxaline-6-carboxylic acid], the IC50 at PASK (Invitrogen) and at PASK was below 10 µM throughout.
Take `C[C@H]1CCCN1c1nc2cc(C(=O)O)ccc2nc1-c1ccc2scnc2c1` [Example 57, 2-(1,3-Benzothiazol-5-yl)-3-[(2S)-2-methylpyrrolidin-1-yl]quinoxaline-6-carboxylic acid]: the 50% inhibitory concentration (IC50) at PASK (Invitrogen) and at PASK was below 10 µM in each case.
Take `CN(c1nc2cc(C(=O)O)ccc2nc1-c1cc2cc(F)ccc2o1)C1CC1` [Example 61, 3-[Cyclopropyl(methyl)amino]-2-(5-fluoro-1-benzofuran-2-yl)quinoxaline-6-carboxylic acid]: the IC50 on PASK (Invitrogen) and on PASK was below 10 µM each time.
For the compound `CC(C)N(C)c1nc2cc(C(=O)O)ccc2nc1-n1cnc2ccccc21` [Example 63, 2-(1H-Benzo[d]imidazol-1-yl)-3-(isopropyl(methyl)amino)quinoxaline-6-carboxylic acid], the IC50 at PASK (Invitrogen) and on PASK was below 10 µM each time.
For the compound `CN(c1nc2cc(C(=O)O)ccc2nc1-c1ccc2[nH]ccc2c1)C1CC1` [Example 64, 3-[Cyclopropyl(methyl)amino]-2-(1H-indol-5-yl)quinoxaline-6-carboxylic acid], the IC50 at PASK (Invitrogen) and at PASK was below 10 µM in each case.
Take `C[C@H]1COCCN1c1nc2cc(C(=O)O)ccc2nc1-c1ccc2[nH]ccc2c1` [Example 66, (S)-2-(1H-Indol-5-yl)-3-(3-methylmorpholino)quinoxaline-6-carboxylic acid]: the IC50 on PASK (Invitrogen) and on PASK was below 10 µM throughout.
As to `COC[C@H]1CCCN1c1nc2cc(C(=O)O)ccc2nc1-c1cc2cc(F)ccc2o1` [Example 68, 2-(5-Fluoro-1-benzofuran-2-yl)-3-[(2R)-2-(methoxymethyl)pyrrolidin-1-yl]quinoxaline-6-carboxylic acid], the IC50 on PASK (Invitrogen) and at PASK was below 10 µM in each case.

One may read the IC50 as the concentration needed to halve the response being measured.

For the origin of these results see patent US8912188B2, “Substituted quinoxaline carboxylic acids for the inhibition of PASK” (BioEnergenix, LLC, priority 2011, dated 2014).
